Data as given in the METLIN SMRT retention time set (Domingo-Almenara et al. 2019).

Assay: gradient 5% acetonitrile 3 min, to 50% in 2 min, to 85% in 15 min, held 3 min, 100 µL/min
Details: column: Zorbax Extend-C18 2.1 x 50 mm; eluents: water / acetonitrile, 0.1% formic acid
In short: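 Retention time was recorded from adduct peaks, which were picked computationally and each inspected manually. Pure standards ran in mixtures of ~100 molecules on HPLC coupled to a quadrupole time-of-flight mass spectrometer, in positive and negative ionization mode, through a Zorbax Extend-C18 column (2.1 × 50 mm, 1.8 μm) at 100 μL/min. Eluents were water and acetonitrile, each with 0.1% formic acid.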

| Structure (SMILES) | RP-LC retention time [s] |
| --- | --- |
| O=C(NC1CCN(Cc2ccccc2)CC1)C1CCCN(c2ncc(-c3ccc(F)cc3)cn2)C1 (stereo unspecified) | 744 |
| O=C(c1ccc(OCC2CCCN(C(=O)C3CCCC3)C2)cc1)N1CCCC1 (stereo unspecified) | 846 |
| Cc1nn(-c2ccc(F)cc2)c(C)c1S(=O)(=O)N1CCC(C(=O)N2CCCC2)CC1 | 790 |
| COc1ccc(Br)c2c1-c1nc(NC(=O)c3ccccc3F)sc1C2 | 1130 |
| CC(C)(CSc1nnnn1-c1ccccc1)NS(=O)(=O)c1ccccc1 | 862 |
| O=C(NC1CC1)[C@@H]1C[C@H](Oc2cccnc2)CN1C(=O)c1ccoc1 | 546 |
| COc1ccc(C2Nc3ccc(C)cc3[C@H]3OCCC[C@@H]23)cc1O (stereo partly specified) | 894 |
| CCNc1nc(C)cc(N2CCN(S(=O)(=O)c3cc(C)c(C)cc3C)CC2)n1 | 774 |
| Cc1ccc(F)c(NS(=O)(=O)c2cc3n(c2)CCCN(C)C3=O)c1 | 687 |
| CCC(=O)NC(C)c1nc(-c2ccc(Cl)cc2)no1 (stereo unspecified) | 823 |
| O=S(=O)(c1cc(F)ccc1F)N1CCc2nc(-c3ccc(Cl)cc3)ncc2C1 | 1210 |
| Cc1cccc(S(=O)(=O)N2C[C@H](c3nc(-c4cccnc4)no3)[C@@H](C)C2)c1 | 914 |
| COC(=O)C1=CN(c2ccc(F)c(Cl)c2)c2ccccc2S1(=O)=O | 910 |
| O=C(Cn1cccc1-c1nnc(-c2ccccc2)o1)N1CCN(c2cccc(Cl)c2)CC1 | 1120 |
| COc1ccc(-c2noc(C3CCCN3C(=O)C3CC3)n2)cc1 (stereo unspecified) | 816 |
| CC(=O)Nc1nc(-c2ccc(S(=O)(=O)N3CCOCC3)cc2)cs1 | 735 |
| CCn1cc(-c2nc(CC(=O)Nc3ccc(OC)cc3)cs2)c2cccnc21 | 858 |
| CC(C)c1cc(C2CCCN2C(=O)c2ccccc2)no1 (stereo unspecified) | 847 |
| COc1ccc(C(C)NC(=O)c2cn3c(n2)COCC3)cc1OC (stereo unspecified) | 608 |
| CC1(C(=O)NCc2ccccc2Cl)Cn2cnc(C(=O)NC3CCCCC3)c2C(=O)N1C1CC1 (stereo unspecified) | 840 |
| COc1ccccc1-c1nc(Cc2noc(-c3cccc(F)c3)n2)c(C)o1 | 1080 |
| CC(C)NC(=O)c1ccc(-c2nc3cc(NS(=O)(=O)Cc4ccccc4)ccc3n2C)cc1 | 667 |
| CCOC(=O)CCC(=O)NCC1(c2ccc(OC)cc2)CCCC1 | 856 |

| Structure (SMILES) | RP-LC retention time [s] |
| --- | --- |
| CCOC(=O)c1cnc(N2CCN(c3cccc(Cl)c3)CC2)c2ccccc12 | 652 |
| O=C(NCCS(=O)(=O)N1CCN(c2ncccn2)CC1)c1cc2ccccc2o1 | 727 |
| COCc1c(C(=O)O)nnn1-c1ccc(OC)c(Cl)c1 | 706 |
| CC1=C(c2ccccc2)S(=O)(=O)N=C1N1CCCN(C(=O)CC(C)(C)C)CC1 | 854 |
| COc1ccc2c(c1)C1(CCN(S(=O)(=O)c3cccc(Cl)c3)C1)C(=O)N2 (stereo unspecified) | 866 |
| CCOC(=O)N1CCC(NS(=O)(=O)CCCOc2ccc(F)cc2)CC1 | 758 |
| Cc1ccc2c(c1)c1nc3ccccc3nc1n2CC(=O)O | 721 |
| CCCc1sc(Nc2ccccc2OCC)nc1-c1ccc(Cl)c(Cl)c1 | 1030 |
| COC(=O)c1ccc(C(=O)NCC(c2ccccc2Cl)N(C)C)cc1 (stereo unspecified) | 560 |
| COc1cccc(NC(=O)N2CCCC2c2nc(-c3cccc(C)c3)no2)c1 (stereo unspecified) | 877 |
| Cc1c(Cl)cccc1Nc1c(-c2ccc(Br)cc2)nc2cnccn12 | 1160 |
| CCn1nc(C)c(CCNC(=O)c2ccc3nc(Cc4ccccc4)oc3c2)c1C | 720 |
| Cc1ccc(-c2nc(C3CCN(S(=O)(=O)c4ccc(C)c(C)c4)CC3)no2)cc1 | 1320 |
| COCCNC(=O)c1nn(-c2ccc(F)cc2)nc1CO | 730 |
| CC(C)NC(=O)N1CCCC(c2cccc(C(=O)NCc3cccs3)c2)C1 (stereo unspecified) | 799 |
| Cc1cc(C)c(S(=O)(=O)N2CCCC2c2nc(-c3ccc(F)cc3)no2)c(C)c1 (stereo unspecified) | 1270 |
| CC(C)N(C(=O)CSc1nc2ccccc2[nH]1)c1ccccc1 | 650 |
| Cc1ccccc1-c1noc(-c2cccnc2N2CCN(Cc3ccccc3)CC2)n1 | 803 |
| Cc1ccc(C(=O)N2CCc3cn(C)c4cccc(c34)C2)cc1F | 997 |
| Cc1ccc(-c2nc3cnc(Br)cn3c2Nc2ccc3c(c2)OCCO3)cc1 | 956 |
| N#Cc1cccc(NC(=O)N2CCCC2c2nc(-c3ccc(F)cc3F)no2)c1 (stereo unspecified) | 930 |
| Cc1nnsc1C(=O)Nc1ccc(-n2nc(C(F)(F)F)cc2C(F)(F)F)cc1 | 758 |
| O=C(NCCC1CCN(C(=O)Nc2cc(F)ccc2F)CC1)c1ccco1 | 758 |
